Results reported in patent US20050085552A1, “Method for providing long-lasting pain relief through intrathecal administration of civamide” (Winston Laboratories, Inc., priority 2003, published 2005).

Tests used:
[1] = compositions containing civamide, per U.S. Pat. No. 5,063,060; cited from earlier work
[2] = test system: male Sprague-Dawley rats; assay: Pain models after a single intrathecal dose: thermal escape, formalin and thermal injury evoked hyperalgesia, tactile allodynia in the Chung model of neuropathy; assay type: in vivo, rat; conditions: single intrathecal dose of 10, 25 or 50 Φg/10 Φl saline with 20% or 25% DMSO
Experimental: Civamide 10 Φg/10 Φl saline, 25Φg/10 Φl saline, and 50 Φg/10 Φl saline and saline itself were administered intrathecally to male Sprague-Dawley rats. Each of the civamide compositions also included either 20% DMSO or 25% DMSO as a suspending agent. The saline used was 0.9% USP. Eighteen hours, 7 days, 14 days and 28 days after administration of a single intrathecal dose of either civamide or saline, models for various types of pain were evaluated. These included models for acute nociceptive processing (i.e. thermal escape), post tissue injury hyperpathic states (i.e. formalin and thermal injury evoked hyperalgesia) and nerve injury induced hyperpathia (i.e. tactile allodynia in the Chung model of neuropathy).

[3] = test system: neurons; assay: Neurotoxicity of civamide (applicant's discovery, no method given)
[4] = assay type: physicochemical
From the text: Civamide in amounts of 1 Φg, 5 Φg, 10 Φg, 50 Φg, and 100 Φg was dispersed in both 10 Φl and 20 Φl of each of the following: 100% dimethylsulfoxide (DMSO), normal saline (0.9% w/v sodium chloride) with 10% DMSO as suspending agent, normal saline with 0.5% DMSO and 10% cyclodextrin, 10% cyclodextrin and 10% DMSO as suspending agent, and normal saline with 10% cyclodextrin suspending agent, and normal saline with 25% DMSO. In each case, the saline was 0.9% USP.

[5] = test system: male Sprague-Dawley rats; assay: Tail flick, hot plate (49° C., 52° C.) and paw pressure pain models after intrathecal administration; assay type: in vivo, rat; conditions: 1-100 Φg in 10 or 20 Φl, evaluated seven days later, paw pressure
Experimental: Civamide and capsaicin were each separately administered intrathecally, in dosages of 1 Φg, 5 Φg, 10 Φg, 50 Φg, or 100 Φg in either 10 Φl or 20 Φl of 0.9% USP saline with 25% DMSO suspending agent, 0.9% USP saline and 10% cyclodextrin, and 0.9% USP saline with 0.5% DMSO and 10% cyclodextrin, to male Sprague-Dawley rats into whom intrathecal catheters had been inserted. Seven days later, tail flick, hot plate (49° C., 52° C.) and paw pressure pain models were evaluated.

## COc1cc(CNC(=O)CCCC/C=C\C(C)C)ccc1O [Civamide, cis-8-methyl-N-vanillyl-6-nonenamide]
[1]
  efficacy compared with compositions containing capsaicin: comparable in efficacy
  local adverse effects compared with capsaicin: significantly less local adverse effects
[2]
  duration of the effects of a single dose: at least 28 days
  time after administration by which effective pain amelioration was produced: ≤ 18 h
[3]
  neurotoxicity: no significant neurotoxicity
[4]
  physical and chemical stability of compositions: physically and chemically stable
[5]
  effectiveness versus intrathecally administered capsaicin in pain models: more effective than intrathecally administered capsaicin
  effectiveness versus saline in pain models: significantly more effective than saline
